From patent US12419886B2, “Parenteral formulations and uses thereof” (Eustralis Pharmaceuticals Limited, priority 2018, dated 2025)

What was measured:
[1] = Solubility of Compound (Ia) 2HCl in water (ethanol also assessed); format: physicochemical
Method: Ethanol was also assessed as part of this study.

[2] = Excipient compatibility, 14 days stability (HPLC assay and related substances); format: physicochemical; details: 25° C./60% RH and 40° C./75% RH
Method: The successful formulation characteristics of a solution are its solubility and stability. The solvent system chosen must also be able to solubilise the drug at the desired concentration and must provide an environment where the drug has sufficient chemical stability. This study is an initial comparison of 2 weeks stability with potential excipients, and the % degradation was assessed. The excipients assessed are those typically found in liquid and freeze dried formulations. Excipient compatibility was investigated by subjecting a series of mixes containing active and excipient to elevated temperature for a nominated period and monitoring any degradation.
The solutions that were soluble in Table 3 were also prepared using Kolliphor 400 mg/mL in water and with Tween 80 as a solubiliser. These solutions were placed on stability at 25° C./60% RH and 40° C./75% RH for 14 days. The formulations was assessed for assay and related substances after 14 days of storage. Refer to Table 4 and 5 for the results.

- pH of solution in water ([1]; 5 mg/mL): 2.39
- Result (solubility in water) ([1]; 5 mg/mL (50 mg in 10 mL water)): Very soluble
- pH of solution in water ([1]; 10 mg/mL): 2.14
- Result (solubility in water) ([1]; 10 mg/mL (100 mg in 10 mL water)): Very soluble
- pH of solution in water ([1]; 15 mg/mL): 2.02
- Result (solubility in water) ([1]; 15 mg/mL (150 mg in 10 mL water)): Soluble
- pH of solution in water ([1]; 20 mg/mL): 1.87
- Result (solubility in water) ([1]; 20 mg/mL (200 mg in 10 mL water)): Soluble
- pH of solution in water ([1]; 25 mg/mL): 1.81
- Result (solubility in water) ([1]; 25 mg/mL (250 mg in 10 mL water)): Soluble
- pH of solution in water ([1]; 30 mg/mL): 1.75
- Result (solubility in water) ([1]; 30 mg/mL (300 mg in 10 mL water)): Soluble
- pH of solution in water ([1]; 35 mg/mL): 1.72
- Result (solubility in water) ([1]; 35 mg/mL (350 mg in 10 mL water)): Soluble
- pH of solution in water ([1]; 40 mg/mL): 1.66
- Result (solubility in water) ([1]; 40 mg/mL (400 mg in 10 mL water)): Soluble
- pH of solution in water ([1]; 45 mg/mL): 1.54
- Result (solubility in water) ([1]; 45 mg/mL (450 mg in 10 mL water)): Soluble
- pH of solution in water ([1]; 50 mg/mL): 1.52
- Result (solubility in water) ([1]; 50 mg/mL (500 mg in 10 mL water)): Soluble
- Solubility ([1]; 50 mg/mL, sentence follows mention of ethanol): freely soluble
- Stability in a range of formulations (conclusion) [2]: quite stable
Compound: Cc1ccccc1-c1cc(N2CCN(C)CC2)ncc1C(=O)N(C)Cc1cc(C(F)(F)F)cc(C(F)(F)F)c1 [Compound (Ia) 2HCl]
